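Assay format: 96-well plates, 48-hour exposure. GI50 = concentration required for 50% inhibition of growth. TGI marks complete inhibition of growth.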
Experiments:
Assay in all cases: NCI anticancer screen, dose series, 48 h
NCI-H226 lung = test system: NCI-H226 lung
MDA-MB-231 breast = test system: MDA-MB-231 breast
MDA-MB-468 breast = test system: MDA-MB-468 breast
K-562 leukemia = test system: K-562 leukemia
MALME-3M melanoma = test system: MALME-3M melanoma
HCC-2998 colon = test system: HCC-2998 colon
T-47D breast = test system: T-47D breast
NCI/ADR-RES ovarian = test system: NCI/ADR-RES ovarian
OVCAR-4 ovarian = test system: OVCAR-4 ovarian
DU-145 prostate = test system: DU-145 prostate
UACC-62 melanoma = test system: UACC-62 melanoma
SN12C renal = test system: SN12C renal
TK-10 renal = test system: TK-10 renal
LOX IMVI melanoma = test system: LOX IMVI melanoma
A549 NSCLC = test system: A549 NSCLC
SNB-19 CNS = test system: SNB-19 CNS
CAKI-1 renal = test system: CAKI-1 renal
SF-539 CNS = test system: SF-539 CNS
SR leukemia = test system: SR leukemia
PC-3 prostate = test system: PC-3 prostate
SK-MEL-2 melanoma = test system: SK-MEL-2 melanoma
HS 578T breast = test system: HS 578T breast
RPMI-8226 leukemia = test system: RPMI-8226 leukemia
OVCAR-8 ovarian = test system: OVCAR-8 ovarian
UO-31 renal = test system: UO-31 renal
SK-OV-3 ovarian = test system: SK-OV-3 ovarian
786-0 renal = test system: 786-0 renal
NCI-H23 lung = test system: NCI-H23 lung
KM12 colon = test system: KM12 colon
HCT-15 colon = test system: HCT-15 colon
HL-60(TB) leukemia = test system: HL-60(TB) leukemia
NCI-H460 lung = test system: NCI-H460 lung
SNB-75 CNS = test system: SNB-75 CNS
BT-549 breast = test system: BT-549 breast
CCRF-CEM leukemia = test system: CCRF-CEM leukemia
U251 CNS = test system: U251 CNS
SK-MEL-28 melanoma = test system: SK-MEL-28 melanoma
MDA-MB-435 = test system: MDA-MB-435
HOP-62 NSCLC = test system: HOP-62 NSCLC
IGROV1 ovarian = test system: IGROV1 ovarian
M14 melanoma = test system: M14 melanoma
HT29 colon = test system: HT29 colon
HOP-92 NSCLC = test system: HOP-92 NSCLC
NCI-H522 lung = test system: NCI-H522 lung
ACHN renal = test system: ACHN renal
HCT-116 colon = test system: HCT-116 colon
MOLT-4 leukemia = test system: MOLT-4 leukemia
SF-268 CNS = test system: SF-268 CNS
SK-MEL-5 melanoma = test system: SK-MEL-5 melanoma
OVCAR-5 ovarian = test system: OVCAR-5 ovarian
SW-620 colon = test system: SW-620 colon
UACC-257 melanoma = test system: UACC-257 melanoma
MCF7 breast = test system: MCF7 breast
EKVX NSCLC = test system: EKVX NSCLC
SF-295 CNS = test system: SF-295 CNS
COLO 205 colon = test system: COLO 205 colon
A498 renal = test system: A498 renal
OVCAR-3 ovarian = test system: OVCAR-3 ovarian

CCc1ccccc1-c1nc(CN[C@@H]2C[C@@H]3C[C@H]([C@H]2C)C3(C)C)c(C)o1
GI50 (NCI-H226 lung): 2110 nM | TGI (NCI-H226 lung): 5000 nM | GI50 (MDA-MB-231 breast): 1700 nM | TGI (MDA-MB-231 breast): 3120 nM | GI50 (MDA-MB-468 breast): 1500 nM | TGI (MDA-MB-468 breast): 2870 nM | GI50 (K-562 leukemia): 2340 nM | TGI (K-562 leukemia): 6540 nM | GI50 (MALME-3M melanoma): 1490 nM | TGI (MALME-3M melanoma): 2840 nM | GI50 (HCC-2998 colon): 1650 nM | TGI (HCC-2998 colon): 3070 nM | GI50 (T-47D breast): 1730 nM | TGI (T-47D breast): 3810 nM | GI50 (NCI/ADR-RES ovarian): 1760 nM | TGI (NCI/ADR-RES ovarian): 3610 nM | GI50 (OVCAR-4 ovarian): 2530 nM | TGI (OVCAR-4 ovarian): 8360 nM | GI50 (DU-145 prostate): 2030 nM | TGI (DU-145 prostate): 4260 nM | GI50 (UACC-62 melanoma): 1690 nM | TGI (UACC-62 melanoma): 3190 nM | GI50 (SN12C renal): 1680 nM | TGI (SN12C renal): 3130 nM | GI50 (TK-10 renal): 2010 nM | TGI (TK-10 renal): 5080 nM | GI50 (LOX IMVI melanoma): 1660 nM | TGI (LOX IMVI melanoma): 3020 nM | GI50 (A549 NSCLC): 1880 nM | TGI (A549 NSCLC): 4030 nM | GI50 (SNB-19 CNS): 1770 nM | TGI (SNB-19 CNS): 3400 nM | GI50 (CAKI-1 renal): 1830 nM | TGI (CAKI-1 renal): 3810 nM | GI50 (SF-539 CNS): 1800 nM | TGI (SF-539 CNS): 3180 nM | GI50 (SR leukemia): 2110 nM | TGI (SR leukemia): 5330 nM | GI50 (PC-3 prostate): 1800 nM | TGI (PC-3 prostate): 4380 nM | GI50 (SK-MEL-2 melanoma): 2550 nM | TGI (SK-MEL-2 melanoma): 7340 nM | GI50 (HS 578T breast): 1830 nM | TGI (HS 578T breast): 4160 nM | GI50 (RPMI-8226 leukemia): 2190 nM | TGI (RPMI-8226 leukemia): 5270 nM | GI50 (OVCAR-8 ovarian): 1700 nM | TGI (OVCAR-8 ovarian): 3240 nM | GI50 (UO-31 renal): 2130 nM | TGI (UO-31 renal): 8450 nM | GI50 (SK-OV-3 ovarian): 14200 nM | TGI (SK-OV-3 ovarian): 28900 nM | GI50 (786-0 renal): 1710 nM | TGI (786-0 renal): 3500 nM | GI50 (NCI-H23 lung): 1960 nM | TGI (NCI-H23 lung): 4380 nM | GI50 (KM12 colon): 1850 nM | TGI (KM12 colon): 3570 nM | GI50 (HCT-15 colon): 1720 nM | TGI (HCT-15 colon): 3150 nM | GI50 (HL-60(TB) leukemia): 2430 nM | TGI (HL-60(TB) leukemia): 6730 nM | GI50 (NCI-H460 lung): 1720 nM | TGI (NCI-H460 lung): 3160 nM | GI50 (SNB-75 CNS): 12000 nM | TGI (SNB-75 CNS): 24400 nM | GI50 (BT-549 breast): 1710 nM | TGI (BT-549 breast): 3170 nM | GI50 (CCRF-CEM leukemia): 3250 nM | TGI (CCRF-CEM leukemia): 10600 nM | GI50 (U251 CNS): 1600 nM | TGI (U251 CNS): 3060 nM | GI50 (SK-MEL-28 melanoma): 1720 nM | TGI (SK-MEL-28 melanoma): 3110 nM | GI50 (MDA-MB-435): 1670 nM | TGI (MDA-MB-435): 3110 nM | GI50 (HOP-62 NSCLC): 1650 nM | TGI (HOP-62 NSCLC): 3280 nM | GI50 (IGROV1 ovarian): 1700 nM | TGI (IGROV1 ovarian): 3260 nM | GI50 (M14 melanoma): 1620 nM | TGI (M14 melanoma): 3120 nM | GI50 (HT29 colon): 1730 nM | TGI (HT29 colon): 3400 nM | GI50 (HOP-92 NSCLC): 1370 nM | TGI (HOP-92 NSCLC): 2850 nM | GI50 (NCI-H522 lung): 1610 nM | TGI (NCI-H522 lung): 3220 nM | GI50 (ACHN renal): 1770 nM | TGI (ACHN renal): 3180 nM | GI50 (HCT-116 colon): 1740 nM | TGI (HCT-116 colon): 3300 nM | GI50 (MOLT-4 leukemia): 2230 nM | TGI (MOLT-4 leukemia): 5720 nM | GI50 (SF-268 CNS): 2580 nM | TGI (SF-268 CNS): 11000 nM | GI50 (SK-MEL-5 melanoma): 1770 nM | TGI (SK-MEL-5 melanoma): 3150 nM | GI50 (OVCAR-5 ovarian): 1590 nM | TGI (OVCAR-5 ovarian): 3040 nM | GI50 (SW-620 colon): 1690 nM | TGI (SW-620 colon): 3200 nM | GI50 (UACC-257 melanoma): 1660 nM | TGI (UACC-257 melanoma): 3230 nM | GI50 (MCF7 breast): 1650 nM | TGI (MCF7 breast): 3180 nM | GI50 (EKVX NSCLC): 2580 nM | TGI (EKVX NSCLC): 7010 nM | GI50 (SF-295 CNS): 1720 nM | TGI (SF-295 CNS): 3170 nM | GI50 (COLO 205 colon): 1850 nM | TGI (COLO 205 colon): 3950 nM | GI50 (A498 renal): 1540 nM | TGI (A498 renal): 2950 nM | GI50 (OVCAR-3 ovarian): 1610 nM | TGI (OVCAR-3 ovarian): 2960 nM
